Assay results as given in patent US20260355196A1, “INHIBITORS AND DEGRADERS OF PIP4K PROTEIN” (Larkspur Biosciences, Inc., priority 2023, published 2026).

molecular target: T1, PIP4K2C (Homo sapiens, UniProt Q8TBX8); assay: HiBiT PIP4K2C degradation assay in MOLT-4 cells (endogenous PIP4K2C C-terminally tagged with HiBiT); assay type: cell-based; design: untagged in primary human PBMCs and monocyte-derived dendritic cells; conditions: 6 hours of incubation time, rather than 24 hours; MOLT-4, top concentration 10 micromolar; read-out: HiBIT-degradation MOLT4 PIP4k2C DC50 (6 hours, marked *)
T1 sequence (Q8TBX8 1-421): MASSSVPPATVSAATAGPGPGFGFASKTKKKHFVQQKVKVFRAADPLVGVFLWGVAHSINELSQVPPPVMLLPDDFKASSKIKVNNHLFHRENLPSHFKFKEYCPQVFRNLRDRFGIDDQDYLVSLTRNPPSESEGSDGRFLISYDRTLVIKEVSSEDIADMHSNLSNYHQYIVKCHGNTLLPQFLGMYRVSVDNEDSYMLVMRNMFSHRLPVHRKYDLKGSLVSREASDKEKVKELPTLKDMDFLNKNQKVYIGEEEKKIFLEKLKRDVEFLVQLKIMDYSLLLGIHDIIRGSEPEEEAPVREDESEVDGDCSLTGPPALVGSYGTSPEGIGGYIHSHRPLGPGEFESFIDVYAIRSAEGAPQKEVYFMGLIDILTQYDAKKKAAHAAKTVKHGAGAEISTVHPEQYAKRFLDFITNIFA
Procedure, shortened: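 Luminescent HiBiT lytic readout of residual PIP4K2C-HiBiT (CRISPR knock-in, MOLT-4, phenol red-free RPMI-1640 + 10% FBS). Cells exposed 6 or 24 h at 37 C to compound, top 10 micromolar, 3-fold, 10 points, duplicate. Hill fit (Levenberg-Marquardt) gives DC50.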

DC50 | Structure (SMILES)
< 500 nM | O=C1CCC(Nc2ccc(C3CCN(C4CCN(C(=O)O[C@H]5CC[C@H](Nc6ncc(F)c(-c7cccc(N8CCOCC8=O)c7)n6)CC5)CC4)CC3)c(F)c2)C(=O)N1 (stereo partly drawn) [Compound 690, trans-4-((5-fluoro-4-(3-(3-oxomorpholino)phenyl)pyrimidin-2-yl)amino)cyclohexyl 4-(4-((2,6-dioxopiperidin-3-yl)amino)-2-fluorophenyl)-[1,4′-bipiperidine]-1′-carboxylate]
< 500 nM | O=C1CCC(Nc2ccc(C3CCN([C@H]4CC[C@H](C(=O)N[C@H]5CC[C@H](Nc6ncc(F)c(-c7cccc(-c8ccccc8)c7)n6)CC5)CC4)CC3)c(F)c2)C(=O)N1 (stereo partly drawn) [Compound 660, trans-(1r,4R)—N-((1r,4R)-4-((4-([1,1′-biphenyl]-3-yl)-5-fluoropyrimidin-2-yl)amino)cyclohexyl)-4-(4-(4-((2,6-dioxopiperidin-3-yl)amino)-2-fluorophenyl)piperidin-1-yl)cyclohexane-1-carboxamide]
< 500 nM | O=C1CCC(Nc2ccc(C3CCN(C[C@H]4CC[C@H](C(=O)N5CCC(Nc6ncc(F)c(-c7cccc(N8CCCOC8=O)c7)n6)CC5)CC4)CC3)c(F)c2)C(=O)N1 (stereo partly drawn) [Compound 684, trans-3-((3-fluoro-4-(1-((4-(4-((5-fluoro-4-(3-(2-oxo-1,3-oxazinan-3-yl)phenyl)pyrimidin-2-yl)amino)piperidine-1-carbonyl)cyclohexyl)methyl)piperidin-4-yl)phenyl)amino)piperidine-2,6-dione]
< 500 nM | O=C1CC[C@@H](Nc2ccc(N3CCN([C@H]4CC[C@H](C(=O)N[C@H]5CC[C@H](Nc6ncc(F)c(-c7cccc(-n8ccccc8=O)c7)n6)CC5)CC4)CC3)c(F)c2)C(=O)N1 (single isomer, unassigned) [Compound 602]
< 500 nM | O=C1CCC(Nc2ccc(N3CCC(N4CCC(C(=O)N[C@H]5CC[C@H](Nc6ncc(F)c(-c7cccc(N8CCCOC8=O)c7)n6)CC5)CC4)CC3)c(F)c2)C(=O)N1 (stereo partly drawn) [Compound 597, trans-1′-(4-((2,6-dioxopiperidin-3-yl)amino)-2-fluorophenyl)-N-(4-((5-fluoro-4-(3-(2-oxo-1,3-oxazinan-3-yl)phenyl)pyrimidin-2-yl)amino)cyclohexyl)-[1,4′-bipiperidine]-4-carboxamide]

Continued, compound first:

Structure (SMILES) | DC50
O=C1CCC(Nc2ccc(C3CCN(C[C@H]4CC[C@H](CNC(=O)[C@H]5CC[C@H](Nc6ncc(F)c(-c7cccc(N8CCOCC8=O)c7)n6)CC5)CC4)CC3)c(F)c2)C(=O)N1 (stereo partly drawn) [Compound 589, trans-(1r,4R)—N-(((1r,4R)-4-((4-(4-((2,6-dioxopiperidin-3-yl)amino)-2-fluorophenyl)piperidin-1-yl)methyl)cyclohexyl)methyl)-4-((5-fluoro-4-(3-(3-oxomorpholino)phenyl)pyrimidin-2-yl)amino)cyclohexane-1-carboxamide] | < 500 nM
O=C1CCC(Nc2ccc(N3CCN(C[C@H]4CC[C@H](CC(=O)N[C@H]5CC[C@H](Nc6ncc(F)c(-c7cccc(N8CCCCC8=O)c7)n6)CC5)CC4)CC3)c(F)c2)C(=O)N1 (stereo partly drawn) [Compound 560, trans-2-((1r,4R)-4-((4-(4-((2,6-dioxopiperidin-3-yl)amino)-2-fluorophenyl)piperazin-1-yl)methyl)cyclohexyl)-N-((1r,4R)-4-((5-fluoro-4-(3-(2-oxopiperidin-1-yl)phenyl)pyrimidin-2-yl)amino)cyclohexyl)acetamide] | < 500 nM
O=C1CCC(Nc2ccc(N3CCN(C4CCN(C(=O)O[C@H]5CC[C@H](Nc6ncc(F)c(-c7cccc(-n8ccccc8=O)c7)n6)CC5)CC4)CC3)c(F)c2)C(=O)N1 (stereo partly drawn) [Compound 475, trans-4-((5-fluoro-4-(3-(2-oxopyridin-1 (2H)-yl)phenyl)pyrimidin-2-yl)amino)cyclohexyl 4-(4-(4-((2,6-dioxopiperidin-3-yl)amino)-2-fluorophenyl)piperazin-1-yl)piperidine-1-carboxylate] | < 500 nM
O=C1CCC(Nc2ccc(N3CCN([C@H]4CC[C@H](C(=O)N[C@H]5CC[C@H](Nc6ncc(F)c(-c7cccc(C(=O)N8CC[C@H](O)C8)c7)n6)CC5)CC4)CC3)c(F)c2)C(=O)N1 (stereo partly drawn) [Compound 537, trans-4-(4-(4-((2,6-dioxopiperidin-3-yl)amino)-2-fluorophenyl)piperazin-1-yl)-N-(trans-4-((5-fluoro-4-(3-((S)-3-hydroxypyrrolidine-1-carbonyl)phenyl)pyrimidin-2-yl)amino)cyclohexyl)cyclohexane-1-carboxamide] | < 500 nM
Cn1nc(N2CCC(=O)NC2=O)c2cc(F)c(C3CCN(CC4CCN(C(=O)[C@H]5CC[C@H](Nc6ncc(F)c(-c7cccc(-n8ccccc8=O)c7)n6)CC5)CC4)CC3)cc21 [Compound 540, trans-1-(5-fluoro-6-(1-((1-((1r,4r)-4-((5-fluoro-4-(3-(2-oxopyridin-1(2H)-yl)phenyl)pyrimidin-2-yl)amino)cyclohexane-1-carbonyl)piperidin-4-yl)methyl)piperidin-4-yl)-1-methyl-1H-indazol-3-yl)dihydropyrimidine-2,4(1H,3H)-dione] | > 5000 nM
O=C1CCC(Nc2ccc(N3CCN(C[C@H]4CC[C@H](CNC(=O)[C@H]5CC[C@H](Nc6ncc(F)c(-c7cccc(N8CCCOC8=O)c7)n6)CC5)CC4)CC3)c(F)c2)C(=O)N1 (stereo partly drawn) [Compound 591, trans-(1r,4R)—N-(((1r,4R)-4-((4-(4-((2,6-dioxopiperidin-3-yl)amino)-2-fluorophenyl)piperazin-1-yl)methyl)cyclohexyl)methyl)-4-((5-fluoro-4-(3-(2-oxo-1,3-oxazinan-3-yl)phenyl)pyrimidin-2-yl)amino)cyclohexane-1-carboxamide] | < 500 nM
O=C1CC[C@H](Nc2ccc(N3CCN(C[C@H]4CC[C@H](CNC(=O)[C@H]5CC[C@H](Nc6ncc(F)c(-c7cccc(-n8ccccc8=O)c7)n6)CC5)CC4)CC3)c(F)c2)C(=O)N1 (single isomer, unassigned) [Compound 460] | < 500 nM
O=C1CCC(Nc2ccc(N3CCC(CC4CCN(C(=O)[C@H]5CC[C@H](Nc6ncc(F)c(-c7cccc(-c8ccc[nH]c8=O)c7)n6)CC5)CC4)CC3)c(F)c2)C(=O)N1 (stereo partly drawn) [Compound 407, trans-3-((3-fluoro-4-(4-((1-(4-((5-fluoro-4-(3-(2-oxo-1,2-dihydropyridin-3-yl)phenyl)pyrimidin-2-yl)amino)cyclohexane-1-carbonyl)piperidin-4-yl)methyl)piperidin-1-yl)phenyl)amino)piperidine-2,6-dione] | < 500 nM
O=C1CCC(Nc2ccc(N3CCN([C@H]4CC[C@H](NC(=O)[C@H]5CC[C@H](Nc6ncc(F)c(-c7cccc(N8CCCOC8=O)c7)n6)CC5)CC4)CC3)c(F)c2)C(=O)N1 (stereo partly drawn) [Compound 490, trans-N-(trans-4-(4-(4-((2,6-dioxopiperidin-3-yl)amino)-2-fluorophenyl)piperazin-1-yl)cyclohexyl)-4-((5-fluoro-4-(3-(2-oxo-1,3-oxazinan-3-yl)phenyl)pyrimidin-2-yl)amino)cyclohexane-1-carboxamide] | < 500 nM

same assay, conditions: 24 hours incubation, MOLT-4, top concentration 10 micromolar; read-out: HiBIT-degradation MOLT4 PIP4k2C 24 hours DC50

DC50 | Structure (SMILES)
< 500 nM | O=C1CCC(Nc2ccc(C3CCN(CC(=O)N4CCN(C(=O)[C@H]5CCC[C@@H](Nc6ncc(Cl)c(-c7cccc(-c8ccccc8)c7)n6)C5)CC4)CC3)cc2)C(=O)N1 (relative stereo) [Compound 57, cis-3-((4-(1-(2-(4-(3-((4-([1,1′-biphenyl]-3-yl)-5-chloropyrimidin-2-yl)amino)cyclohexane-1-carbonyl)piperazin-1-yl)-2-oxoethyl)piperidin-4-yl)phenyl)amino)piperidine-2,6-dione]
< 500 nM | O=C1CCC(n2c(=O)oc3cc(C4CCN(CCC5CCN(C(=O)[C@@H]6CCC[C@H](Nc7ncc(F)c(-c8cccc(-n9cc(C(F)(F)F)ccc9=O)c8)n7)C6)CC5)CC4)ccc32)C(=O)N1 (stereo partly drawn) [Compound 357, 3-(6-(1-(2-(1-((1R,3S)-3-((5-fluoro-4-(3-(2-oxo-5-(trifluoromethyl)pyridin-1(2H)-yl)phenyl)pyrimidin-2-yl)amino)cyclohexane-1-carbonyl)piperidin-4-yl)ethyl)piperidin-4-yl)-2-oxobenzo[d]oxazol-3 (2H)-yl)piperidine-2,6-dione]
< 500 nM | Cn1c(=O)n(C2CCC(=O)NC2=O)c2ccc(C3CCN(CCC4CCN(C(=O)[C@@H]5CCC[C@H](Nc6ncc(Cl)c(-c7cccc(-c8ccccc8)c7)n6)C5)CC4)CC3)cc21 (stereo partly drawn) [Compound 280, 3-(5-(1-(2-(1-((1R,3S)-3-((4-([1,1′-biphenyl]-3-yl)-5-chloropyrimidin-2-yl)amino)cyclohexane-1-carbonyl)piperidin-4-yl)ethyl)piperidin-4-yl)-3-methyl-2-oxo-2,3-dihydro-1H-benzo[d]imidazol-1-yl)piperidine-2,6-dione]

same assay, conditions: read-out: HiBIT-degradation MOLT4 PIP4k2C DC50 (6 hours, marked *); 6 hours of incubation time, rather than 24 hours; MOLT-4, top concentration 10 micromolar

DC50 | Structure (SMILES)
< 500 nM | Cn1nc(C2CCC(=O)NC2=O)c2ccc(N3CCN(CC4(O)CCN(C(=O)O[C@H]5CC[C@H](Nc6ncc(F)c(-c7cccc(-c8ccccc8)c7)n6)CC5)CC4)CC3)cc21 (stereo partly drawn) [Compound 642, trans-4-((4-([1,1′-biphenyl]-3-yl)-5-fluoropyrimidin-2-yl)amino)cyclohexyl 4-((4-(3-(2,6-dioxopiperidin-3-yl)-1-methyl-1H-indazol-6-yl)piperazin-1-yl)methyl)-4-hydroxypiperidine-1-carboxylate]
